Reference: patent US20260248833A1, “PYRIMIDINE NUCLEOSIDE TREATMENTS” (The Children`s Medical Center Corporation, priority 2022, published 2026)
“Also recorded” adds a separate entry of the source.

Key:
[1] = system: pCHK1-S345 and pRPA32-S33; assay: Immunoblot of replication stress signaling in iPSCs; assay type: cell-based, human; conditions: iPSCs treated with dT
K562 cells = assay: Cell cycle analysis by DAPI staining and flow cytometry, K562 cells; assay type: cell-based, human
Procedure: (§1) Cell cycle analysis by DNA content staining and flow cytometry: Cells were prepared either for flow-FISH staining as described (for experiments in FIG. 5) or by ethanol fixation (for data in FIG. 6, 27), followed by rehydration and counterstaining using DAPI (BD Biosciences) and analysis on an LSR-II or Fortessa analyzer (BD Biosciences) using BD FACSDiva 8.0.2. Cells were gated on FSC/SSC as described in FIG. 6d using FlowJo V10.7.1.

primary fibroblasts = assay: Telomere lengthening from dT with TERT expression in primary fibroblasts; assay type: cell-based; conditions: primary fibroblasts (FIG. 30A)
TERC-null 293T cells = assay: TRF Southern blot telomere length, telomerase-negative TERC-null 293T cells; assay type: cell-based, human; conditions: 100 μM thymidine for 7 days
Procedure: (§2) Cell culture: K562 cells (ATCC) were grown in RPMI1 1640 (Gibco) media supplemented with 10% fetal bovine serum. 293T cells (ATCC) were grown in DMEM (Gibco) supplemented with 10% fetal bovine serum, and were subcultured using 0.05% trypsin (Gibco). iPSCs were derived, characterized and cultured as previously described. iPSCs were grown in Essential 8 Media (Life Technologies) supplemented with the ROCK inhibitor Y271632 (Stem Cell Technologies) at 10 μM on plates coated with hES qualitied Matrigel matrix (Corning) and were subcultured using Accutase (Stem Cell Technologies).
(§3) Terminal Restriction Fragment Length Analysis: genomic DNA was isolated from cells using the Invitrogen Purelink Genomic DNA mini kit (Invitrogen). 1-3 μg of gDNA was digested with RsaI and HinfI for 2-3 hrs at 37° C. and loaded onto a 0.6% agarose gel followed by Southern blotting using the Telotaggg Telomere Length Assay Kit (Roche). Quantification was performed using the WALTER webtool.

cell cycle progression = conditions: cited from earlier work
[2] = system: iPSCs derived from TBD patients; assay: TRF Southern blot telomere length, TBD patient-derived iPSCs; assay type: cell-based, human; conditions: for telomere length increase / telomere elongation: 50 μM dT for three weeks; for telomere elongation: panel of TBD patient iPSCs (TERC, DKC1, PARN)
Procedure: as §2, §3

[3] = system: mouse model of TK2 deficiency; conditions: 520 mg/kg/day of dT; cited from earlier work
293T cells = assay: Terminal restriction fragment (TRF) Southern blot telomere length, 293T cells; assay type: cell-based, human
Procedure: as §2, §3

telomerase = assay: TRAP assay on lysates from 293T cells treated with dT; assay type: cell-based, human; conditions: 293T cells treated with or without 100 μM dT, 3 days
Procedure: TRAP assay: cell extracts for TRAP assays were made using TRAPeze™1×CHAPS Lysis Buffer (Roche) supplemented with RNASEin (Promega). Standard TRAP reactions (in FIG. 25a) were performed as described, with cell input normalized across samples using the Bio-Rad DC assay. TRAP assays were modified to enable unique dNTP concentrations in telomerase reactions from PCR reactions (FIG. 25) as follows: reactions were assembled with 1×TRAP buffer (20 mM Tris-HCl, pH 8.3; 1.5 mM MgCl2; 63 mM KCl; 0.05% Tween 20; 1 mM EGTA), TS, ACX, TNST, and NT primers as described (see Primers/Oligos below), dNTPs were added at physiologic concentrations (dATP 24 μM, dGTP 5.2 μM, dCTP 29 μM, dTTP 37 μM) unless otherwise mentioned in the figure legend, followed by telomerase extracts. TRAP assays were modified to detect GGAAAG repeats using the following primers: TS GGAAAG, TNST GGAAAG, ACX GGAAAG, and NT (see Primers/Oligos below). After addition of telomerase extracts, reactions were incubated for 30 minutes at 30° C. followed by heat inactivation at 95° C. for 5 minutes. […] Images were quantified for a given lane using ImageJ by measuring the signal of the telomerase repeat sized products divided by the signal of the internal control band for the lane, normalized to the same ratio for the untreated sample(s) in a given experiment. […]

[4] = system: T-free super-telomerase expressing cells (293T TERC-null); assay: Slot blot of GGAAAG repeat content in cellular DNA; assay type: cell-based, human
Procedure: Slot blotting: slot blotting was performed as described with minor modifications. Briefly, DNA concentration was normalized to 20 ng/μl using a nanodrop spectrophotometer. 3.3 μl of DNA was added to 16.5 μl of denaturation solution (0.5 M NaOH, 1.5 M NaCl) and heated to 55° C. for 30 minutes. 495 μl of neutralization solution (0.5 M Tris-HCl, 1.5 M NaCl) was added to denatured DNA and 156 μl of this solution was added in triplicate to different slots on a Bio-Dot SF Apparatus (Bio-Rad) and blotted onto Hybond N+ Membrane (Cytivia). Membrane preparation and washing was performed as described. For samples with paired GGTTAG and GGAAAG slot blots, the above recipe was doubled, and 156 μl was loaded onto parallel membranes in triplicate on each membrane. After blotting, membranes were hybridized and detected as described above for TRF Southern blots using the probe indicated in the figure. Blots were analyzed using ImageJ. Statistical analysis was performed using Graphpad prism V9.1.0.

[5] = system: super-telomerase cells (TERC-null 293T cells transfected with TERT and TERC); assay: Cell cycle analysis by DAPI staining and flow cytometry, super-telomerase cells; assay type: cell-based, human; conditions: 40 μM dT
Procedure: as §1

In the case of `Cc1cn([C@H]2C[C@H](O)[C@@H](CO)O2)c(=O)[nH]c1=O` [dT, 1-[(2R,4S,5R)-4-Hydroxy-5-(hydroxymethyl)oxolan-2-yl]-5-methylpyrimidine-2,4 (1H,3H)-dione], the replication stress signaling [1] is reported as “no indication of replication stress signaling”, the “dT doses with no detectable changes in cell cycle distribution” value (K562 cells) is reported as “below 12.5 μM” and the “telomere lengthening from dT with expression of TERT” value (primary fibroblasts) is reported as “expression of TERT can increase telomere lengthening from dT”. The telomere length (TERC-null 293T cells) was “failed to drive detectable telomere elongation”, the “doses typically used to synchronize cells in S phase” value (cell cycle progression) was 1 to 2 mM and the telomere length increase ([2]; PARN deficient iPSCs) was 570 bp. For the same compound, the telomere length ([2]; TBD patient-derived iPSCs with two different mutations, 100 μM dT for 22 days (FIG. 13A)) was “increased telomere length”, the telomere length increase ([2]; TERC deficient iPSCs) was 640 bp and the telomere elongation [2] was “produced telomere elongation in all cases”. For the same compound, the telomere elongation ([2]; listed as thymidine) was “hundreds of basepairs”, the lifespan [3] was “increased lifespan in a mouse model of TK2 deficiency” and the “doses leading to robust telomere elongation in less than 10 days” value (293T cells) was no less than 50 µM. The “telomere lengthening from dT treatment” value (293T cells; 50 μM dT for eight days, without SAMHD1 knockdown) was ~ 470 bp, the “telomere elongation after withdrawal of dT” value (293T cells; 100 μM dT withdrawn after 15 days) was “aborted telomere elongation” and the “telomere length, time-course of dT treatment” value (293T cells; 100 μM dT, over 33 days) was “gradually and continually increased telomere length”. The telomere length (293T cells; 100 μM of the indicated deoxynucleoside(s) for 9 days) was “rapidly and robustly increases telomere length; also recorded: promoted telomere lengthening, as did dT alone; also recorded: necessary and sufficient for telomere lengthening”, the telomere length (293T cells; 20 or 40 μM dT, 10 days) was “minimal telomere length changes” and the telomere length (293T cells; 20 or 40 μM dT, 34 days) was “robust telomere lengthening”. For the same compound, the “persistence of long telomere length after dT withdrawal” value (293T cells; 100 micromolar thymidine for 15 days then removed) was “more than two weeks”, the “telomere lengthening following dT with dNTPase-deficient SAMHD1 H215A or K312A variants” value (293T cells; 10 days) was “could not restrict telomere lengthening following dT supplementation” and the “telomere lengthening following dT treatment with overexpression of wild-type SAMHD1” value (293T cells; 10 days, compared to EGFP control) was “reduced telomere lengthening following dT treatment”. For the same compound, the “telomere elongation with dT from different manufacturers” value (293T cells; 10 days, three manufacturers, each of >98% purity) was “resulted in telomere elongation similarly”, the “telomere lengthening upon dT treatment in TK1-edited cells” value (293T cells; CRISPR/Cas9 TK1 edited) was “complete abrogation of the telomere lengthening; also recorded: prevented telomere lengthening following dT treatment” and the “telomere lengthening upon dT treatment in TK2-edited cells” value (293T cells; CRISPR/Cas9 TK2 edited) was “no difference in telomere length increases compared to control AAVS1-targeted cells; also recorded: TK2 knockout did not”. The “telomere lengthening, combined SAMHD1 knockdown and dT treatment” value (293T cells; SAMHD1 targeting shRNA, 50 μM dT for eight days) was ~ 800 bp, the “telomere elongation, increase of base pairs (bp) per day” value (293T cells; at 100 μM dT) was 96 bp per day and the “telomere elongation, increase of base pairs (bp) per day” value (293T cells; at […] dT) was 60 bp per day. For the same compound, the “telomere lengthening in TYMS-knockout cells” value (293T cells; baseline 16 μM dT, plus 100 μM additional dT or 1 mM dU, 10 days) was “responsive to dT to promote telomere lengthening”, the “telomerase activity in lysates (abundance of active telomerase enzymes)” value (telomerase) was “no difference in telomerase activity” and the GGAAAG repeat content ([4]; 100 μM dT, 30 hours, wild-type versus T-free super-telomerase) was “an increase in GGAAAG repeat content exclusively in cells expressing T-free telomerase; also recorded: enhanced repeat synthesis by telomerase”. The “rescue of GGAAAG repeat synthesis following 5FU treatment” value ([4]; dT with 5FU) was “could rescue the inhibition of GGAAAG repeat synthesis following 5FU treatment; also recorded: rescued by dT supplementation” and the “cell cycle progression at the telomere-active dose” value [5] was “below those that significantly impacted cell cycle progression”.
